Patent US11053204B2, “Pyrimidinyloxy benzene derivatives as herbicides” (FMC Corporation, priority 2015, dated 2021)

Experiments:
Assay type in all cases: in vivo
[1] = tested on: Italian ryegrass (Lolium multiflorum); experiment: Test A preemergence, visual injury rating; settings: Lolium multiflorum, pre-emergence, 240 h, 0 to 100 scale (0 no effect, 100 complete control), read-out: Ryegrass, Italian plant response rating
Summary of the method: (§1)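 Greenhouse pot test, loam/sand soil. Formulation: non-phytotoxic solvent mix plus surfactant. Pre: directed spray onto soil after sowing. Post: plants at 1–2 leaf, 2–10 cm. Rated visually vs untreated controls at ~10 d, 0 (no effect) to 100 (complete control).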

[2] = tested on: giant foxtail (Setaria faberii); experiment: Test A preemergence, visual injury rating; settings: Setaria faberi, pre-emergence, 240 h, 0 to 100 scale (0 no effect, 100 complete control), read-out: Foxtail, Giant plant response rating
Summary of the method: as §1

[3] = tested on: barnyardgrass (Echinochloa crus-galli); experiment: Test A preemergence, visual injury rating; settings: Echinochloa crus-galli, pre-emergence, 240 h, 0 to 100 scale (0 no effect, 100 complete control), read-out: Barnyardgrass plant response rating
Summary of the method: as §1

[4] = tested on: ragweed (common ragweed, Ambrosia elatior); experiment: Test A preemergence, visual injury rating; settings: Ambrosia artemisiifolia, pre-emergence, 240 h, 0 to 100 scale (0 no effect, 100 complete control), read-out: Ragweed plant response rating
Summary of the method: as §1

kochia (Kochia scoparia) [5] = experiment: Test A preemergence, visual injury rating; settings: Bassia scoparia, pre-emergence, 240 h, 0 to 100 scale (0 no effect, 100 complete control), read-out: Kochia plant response rating
Summary of the method: as §1

[6] = tested on: pigweed (Amaranthus retroflexus); experiment: Test A preemergence, visual injury rating; settings: Amaranthus retroflexus, pre-emergence, 240 h, 0 to 100 scale (0 no effect, 100 complete control), read-out: Pigweed plant response rating
Summary of the method: as §1

[7] = tested on: chickweed (common chickweed, Stellaria media); experiment: Test C postemergence, plant response rating; settings: Stellaria media, post-emergence
Summary of the method: (§2)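 After sowing in loam–sand blend or silt loam, pots were sprayed preemergence; separately grown 1- to 4-leaf plants were sprayed postemergence. Following 13 to 15 d under greenhouse conditions, injury was rated visually on a 0 to 100 scale.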

[8] = tested on: ryegrass, Italian (Italian ryegrass, Lolium multiflorum); experiment: Test C postemergence, plant response rating; settings: Lolium multiflorum, post-emergence
Summary of the method: as §2

corn (Zea mays) = experiment: Test C postemergence, plant response rating; settings: Zea mays, post-emergence
Summary of the method: as §2

[9] = tested on: oat, wild (wild oat Avena fatua); experiment: Test C postemergence, plant response rating; settings: Avena fatua, post-emergence
Summary of the method: as §2

[10] = tested on: nutsedge, yellow (yellow nutsedge, Cyperus esculentus); experiment: Test C postemergence, plant response rating; settings: Cyperus, post-emergence
Summary of the method: as §2

[11] = tested on: crabgrass, large (large crabgrass, Digitaria sanguinalis); experiment: Test C postemergence, plant response rating; settings: Digitaria sanguinalis, post-emergence
Summary of the method: as §2

[12] = tested on: ragweed (common ragweed, Ambrosia elatior); experiment: Test C postemergence, plant response rating; settings: Ambrosia artemisiifolia, post-emergence
Summary of the method: as §2

[13] = tested on: galium (catchweed bedstraw, Galium aparine); experiment: Test C postemergence, plant response rating; settings: Galium, post-emergence
Summary of the method: as §2

soybean (Glycine max) = experiment: Test C postemergence, plant response rating; settings: Glycine max, post-emergence
Summary of the method: as §2

kochia (Kochia scoparia) [14] = experiment: Test C postemergence, plant response rating; settings: Bassia scoparia, post-emergence
Summary of the method: as §2

[15] = tested on: waterhemp (common waterhemp, Amaranthus rudis); experiment: Test C postemergence, plant response rating; settings: for Plant response rating, Waterhemp: scale 0 to 100; for Waterhemp plant response rating: scale 0 to 100 (0 no effect, 100 complete control)
Summary of the method: as §2

[16] = tested on: lambsquarters (Chenopodium album); experiment: Test C postemergence, plant response rating; settings: Chenopodium album, post-emergence
Summary of the method: as §2

[17] = 62 g ai/ha, scale 0 to 100 (0 no effect, 100 complete control)
[18] = 125 g ai/ha, scale 0 to 100 (0 no effect, 100 complete control)

## C=CCOC(=O)c1c(Br)cccc1Oc1ncc(Cl)cn1 [Compound 22, 2-propen-1-yl 2-bromo-6-[(5-chloro-2-pyrimidinyl)oxy]benzoate]
[1]; 125 g ai/ha
  pest or weed control at 125 g/ha: 30%
[1]; 500 g ai/ha
  pest or weed control at 500 g/ha: 90%
[2]; 125 g ai/ha
  pest or weed control at 125 g/ha: 100%
[2]; 500 g ai/ha
  pest or weed control at 500 g/ha: 100%
[3]; 125 g ai/ha
  pest or weed control at 125 g/ha: 40%
[3]; 500 g ai/ha
  pest or weed control at 500 g/ha: 100%
[4]; 125 g ai/ha
  pest or weed control at 125 g/ha: 0%
[4]; 500 g ai/ha
  pest or weed control at 500 g/ha: 0%
Kochia (Kochia scoparia) [5]; 125 g ai/ha
  pest or weed control at 125 g/ha: 30%
Kochia (Kochia scoparia) [5]; 500 g ai/ha
  pest or weed control at 500 g/ha: 100%
[6]; 125 g ai/ha
  pest or weed control at 125 g/ha: 100%
[6]; 500 g ai/ha
  pest or weed control at 500 g/ha: 100%
[7]; 16 g ai/ha, scale 0 to 100
  pest or weed control at 16 g/ha: 20%
[7]; 31 g ai/ha, scale 0 to 100
  pest or weed control at 31 g/ha: 60%
[7]; [17]
  pest or weed control at 62 g/ha: 65%
[7]; [18]
  pest or weed control at 125 g/ha: 60%
[8]; 16 g ai/ha, scale 0 to 100
  pest or weed control at 16 g/ha: 0%
[8]; 31 g ai/ha, scale 0 to 100
  pest or weed control at 31 g/ha: 0%
[8]; [17]
  pest or weed control at 62 g/ha: 0%
[8]; [18]
  pest or weed control at 125 g/ha: 5%
Corn (Zea mays); 16 g ai/ha, scale 0 to 100
  Corn plant response rating (crop injury, 0 = no effect, 100 = complete kill) at 16 g/ha: 5%
Corn (Zea mays); 31 g ai/ha, scale 0 to 100
  Corn plant response rating (crop injury, 0 = no effect, 100 = complete kill) at 31 g/ha: 5%
Corn (Zea mays); [17]
  plant injury at 62 g/ha: 5%
Corn (Zea mays); [18]
  plant injury at 125 g/ha: 15%
[9]; 16 g ai/ha, scale 0 to 100
  pest or weed control at 16 g/ha: 0%
[9]; 31 g ai/ha, scale 0 to 100
  pest or weed control at 31 g/ha: 0%
[9]; [17]
  pest or weed control at 62 g/ha: 0%
[9]; [18]
  pest or weed control at 125 g/ha: 5%
[10]; 16 g ai/ha, scale 0 to 100
  pest or weed control at 16 g/ha: 0%
[10]; 31 g ai/ha, scale 0 to 100
  pest or weed control at 31 g/ha: 0%
[10]; [17]
  pest or weed control at 62 g/ha: 5%
[10]; [18]
  pest or weed control at 125 g/ha: 5%
[11]; 16 g ai/ha, scale 0 to 100
  pest or weed control at 16 g/ha: 10%
[11]; 31 g ai/ha, scale 0 to 100
  pest or weed control at 31 g/ha: 15%
[11]; [17]
  pest or weed control at 62 g/ha: 25%
[11]; [18]
  pest or weed control at 125 g/ha: 25%
[12]; 16 g ai/ha, scale 0 to 100
  pest or weed control at 16 g/ha: 5%
[12]; 31 g ai/ha, scale 0 to 100
  pest or weed control at 31 g/ha: 35%
[12]; [17]
  pest or weed control at 62 g/ha: 50%
[12]; [18]
  pest or weed control at 125 g/ha: 50%
[13]; 16 g ai/ha, scale 0 to 100
  pest or weed control at 16 g/ha: 10%
[13]; 31 g ai/ha, scale 0 to 100
  pest or weed control at 31 g/ha: 25%
[13]; [17]
  pest or weed control at 62 g/ha: 60%
[13]; [18]
  pest or weed control at 125 g/ha: 70%
Soybean (Glycine max); 16 g ai/ha, scale 0 to 100
  plant injury at 16 g/ha: 40%
Soybean (Glycine max); 31 g ai/ha, scale 0 to 100
  plant injury at 31 g/ha: 40%
Soybean (Glycine max); [17]
  plant injury at 62 g/ha: 35%
Soybean (Glycine max); [18]
  plant injury at 125 g/ha: 75%
Kochia (Kochia scoparia) [14]; 16 g ai/ha, scale 0 to 100
  pest or weed control at 16 g/ha: 50%
Kochia (Kochia scoparia) [14]; 31 g ai/ha, scale 0 to 100
  pest or weed control at 31 g/ha: 80%
Kochia (Kochia scoparia) [14]; [17]
  pest or weed control at 62 g/ha: 85%
Kochia (Kochia scoparia) [14]; [18]
  pest or weed control at 125 g/ha: 50%
[15]; 16 g ai/ha
  Plant response rating, Waterhemp: 75
[15]; 31 g ai/ha
  Plant response rating, Waterhemp: 75
[15]; 62 g ai/ha
  Waterhemp plant response rating: 85
[15]; 125 g ai/ha
  Waterhemp plant response rating: 80
[16]; 16 g ai/ha, scale 0 to 100
  pest or weed control at 16 g/ha: 65%
[16]; 31 g ai/ha, scale 0 to 100
  pest or weed control at 31 g/ha: 70%
[16]; [17]
  pest or weed control at 62 g/ha: 70%
[16]; [18]
  pest or weed control at 125 g/ha: 75%
